Results as given in patent US8299115B2, “Pyrrole-2-carboxamide derivatives as glucokinase activators, their process and pharmaceutical application” (priority 2007, dated 2012).

What was measured:
[1] = target: T1, human recombinant glucokinase (Homo sapiens, UniProt P35557); experiment: Characterization of partial glucokinase activators: dose-dependent effect on S0.5 of glucokinase for glucose (% ΔS0.5); assay type: biochemical; details: for Emax: % change of S0.5 at saturating compound concentration, read-out: % Emax (with respect to % ΔS0.5); for EC50: sigmoidal fit of % ΔS0.5 vs log compound concentration, read-out: EC50 (with respect to % ΔS0.5)
T1 sequence (P35557 1-465): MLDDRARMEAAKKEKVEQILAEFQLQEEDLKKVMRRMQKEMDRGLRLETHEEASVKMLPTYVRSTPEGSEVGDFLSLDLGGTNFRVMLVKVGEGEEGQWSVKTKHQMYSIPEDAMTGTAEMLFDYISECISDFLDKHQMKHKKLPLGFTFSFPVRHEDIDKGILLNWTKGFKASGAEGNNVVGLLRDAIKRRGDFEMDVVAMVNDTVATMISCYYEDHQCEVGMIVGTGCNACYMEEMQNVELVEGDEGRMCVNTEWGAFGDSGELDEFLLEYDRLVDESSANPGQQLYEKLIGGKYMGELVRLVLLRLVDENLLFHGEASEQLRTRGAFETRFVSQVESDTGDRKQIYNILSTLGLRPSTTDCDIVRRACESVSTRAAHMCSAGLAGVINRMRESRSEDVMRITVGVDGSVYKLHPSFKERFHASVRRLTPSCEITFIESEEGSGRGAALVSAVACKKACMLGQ
Excerpt: (§1) Glucokinase (GK) activity, in vitro, has been measured using a coupled enzymatic assay (Ref: Hariharan et al (1997) Diabetes 46: 11-16). GK catalyzes the first step, the conversion of glucose to glucose-6-phosphate (G6P) in the presence of ATP. G6P in turn is converted by glucose-6-phosphate dehydrogenase (G6PD) to 6-phosphogluconate, a process that requires NAD, resulting in NADH formation. Since the GK-catalyzed step is the rate-limiting step of this coupled enzymatic process, the rate of accumulation of 6-phosphogluconate and NADH is directly proportional to the rate of glucose phosphorylation by GK. The rate of the GK-catalyzed reaction can therefore be measured by monitoring the increase in NADH absorbance at 340 nm.
(§2) The assay is carried out according to the protocol outlined in Hariharan et al (1997), Diabetes 46: 11-16. Briefly, the test compounds are incubated in a reaction mix containing 25 mM HEPES (pH 7.2), 10 mM MgCl2, 100 mM KCl, 5 mM ATP, 2 mM DTT, 0.5 mM NAD, 1 U/ml Leuconostoc mesenteroides G6PD, 0.3 U/ml of purified human recombinant GK, and different concentrations of glucose. Enzymatic activity is calculated from the initial reaction velocity, measured from the change in NADH absorbance as a function of time.
Compounds of interest from the general formula (I) are tested in the in vitro GK enzymatic assay to monitor dose-dependent effect on glucokinase activation (in kinetic mode), as described above, at various glucose concentrations. The maximum efficacy (Emax) and potency (EC50) for the assessment of partial glucokinase activation have been defined in our co-pending application 409/CHE/2007. The same definitions have also been used here. The S0.5 of glucokinase for glucose at different concentration of each compound of interest is calculated from the following modified version of the Michaelis-Menten equation, V=Vmax[S]^n/(S0.5^n+[S]^n), where [S] is the glucose concentration and n is the Hill coefficient (taken as 1.7 to account for the sigmoidal kinetics of glucokinase with respect to glucose). The S0.5 is plotted against the log of the compound concentration. The change in the S0.5 of glucokinase (ΔS0.5) for glucose is calculated by subtracting the S0.5 at each concentration of the compound from the S0.5 in the vehicle control. The ΔS0.5 is then normalized to a percent scale, where the S0.5 in the vehicle control is set to 0% and 0 mM glucose is set to 100%. The % ΔS0.5 is then plotted against the log of the compound concentration. The EC50 of % change in S0.5 is obtained from the sigmoidal fit of the data.

[2] = target: T1, human recombinant glucokinase; experiment: Glucokinase activation, coupled enzymatic assay (G6PD/NADH) at 5 mM glucose; assay type: biochemical; details: read-out: EC50 for GK activation at 5 mM glucose
Excerpt: as §1, §2
Compounds described in formula (I), in concentration ranges from 1.0 nM to 500 μM, are tested in the purified human recombinant glucokinase assay described above.
A compound is considered to be a glucokinase activator if it, in its testable range of concentrations, yields a higher rate of glucose phosphorylation than in its absence at a particular glucose concentration, for example at 5 mM glucose.

[3] = cited from earlier work

Row | Molecule | Emax [1] | EC50 [1] | EC50 [2] | other results
1 | CC(C)Cc1cc(C(=O)Nc2ncc(Cl)s2)n(Cc2ccc(F)c(C(F)(F)F)c2)c1 [Example A31, 1-(4-Fluoro-3-trifluoromethyl-benzyl)-4-isobutyl-1H-pyrrole-2-carboxylic acid (5-chloro-thiazol-2-yl)-amide] | 40% | 220 nM |  | 
2 | CC(C)Cc1cc(C(=O)Nc2ncc(Cl)s2)n(Cc2ccc(F)c(F)c2)c1 [Example A40, 1-(3,4-Difluoro-benzyl)-4-isobutyl-1H-pyrrole-2-carboxylic acid (5-chloro-thiazol-2-yl)-amide] | 65% | 200 nM |  | 
3 | CCOC(=O)Cc1nc(NC(=O)c2cc(CC(C)C)cn2Cc2ccc(F)c(F)c2)sc1Cl [Example A116, (5-Chloro-2-{[1-(3,4-difluoro-benzyl)-4-isobutyl-1H-pyrrole-2-carbonyl]-amino}-thiazol-4-yl)-acetic acid ethyl ester] | 70% | 300 nM |  | 
4 | CC(C)C(O)c1cc(C(=O)Nc2ncc(Cl)s2)n(Cc2ccc(F)c(F)c2)c1 (stereo not shown) [Example C2, 1-(3,4-Difluoro-benzyl)-4-(1-hydroxy-2-methyl-propyl)-1H-pyrrole-2-carboxylic acid (5-chloro-thiazol-2-yl)-amide] |  |  | 630 nM | 
5 | CC(C)C(O)c1cc(C(=O)Nc2nccs2)n(Cc2ccc(S(C)(=O)=O)cc2)c1 (stereo not shown) [Example C6, 4-(1-Hydroxy-2-methyl-propyl)-1-(4-methanesulfonyl-benzyl)-1H-pyrrole-2-carboxylic acid thiazol-2-ylamide] |  |  | 600 nM | 
6 | CC(C)C(O)c1cc(C(=O)Nc2ncc(F)s2)n(Cc2ccc(S(C)(=O)=O)cc2)c1 (stereo not shown) [Example C8, 4-(1-Hydroxy-2-methyl-propyl)-1-(4-methanesulfonyl-benzyl)-1H-pyrrole-2-carboxylic acid (5-fluoro-thiazol-2-yl)-amide] |  |  | 430 nM | 
7 | CS(=O)(=O)c1ccc(Cc2cc(C(=O)Nc3nc(CC(=O)O)c(Cl)s3)n(Cc3ccc(F)c(F)c3)c2)cc1 [Example E23, (5-Chloro-2-{[1-(3,4-difluoro-benzyl)-4-(4-methanesulfonyl-benzyl)-1H-pyrrole-2-carbonyl]-amino}-thiazol-4-yl)-acetic acid] |  |  | 300 nM | 
8 | O=C(Nc1ncc(F)s1)[C@H](CC1CCOCC1)c1ccc(S(=O)(=O)C2CC2)cc1 [PSN-GK1] |  |  |  | hypoglycemic potential ([3]; at higher dose, Fyfe 2007): hypoglycemic potential
9 | Ro-28-1675 [reference compound] |  |  |  | hypoglycemia in animal efficacy models ([3]; Kamata et al 2004): cause hypoglycemia; S0.5 of glucokinase for glucose in presence of activator ([1]; drop from approximate 8 mM glucose, enzyme-based in vitro assay): ≤ 1.0 mM
